Measurements from patent EP4682141A1, “TRICYCLIC COMPOUND” (ONO Pharmaceutical Co., Ltd., priority 2023, dated 2024).

What was measured:
[1] = tested on: rat 5/6 kidney-removed model; assay: in vivo drug efficacy on renal damage in rat 5/6 kidney-removed model; set-up: species or system Jcl: Wistar (Wistar) rats; conditions: after 8 weeks from the start of administration
Excerpt: The obtained urine sample was centrifuged, and the supernatant was subjected to measurement.

[2] = tested on: Alport syndrome model mice; assay: in vivo drug efficacy in Alport syndrome model mice; set-up: species or system COL4A5 homozygote knockout mice; conditions: 16 weeks after the start of administration
Method: The in vivo drug efficacy of the present compound on Alport syndrome was evaluated using COL4A5 (causative gene of Alport syndrome) knockout mice.
Male wild-type mice and female COL4A5 hetero knockout mice were naturally crossed to obtain offspring. Genotypes of the offspring were confirmed and male COL4A5 homozygote knockout mice were obtained.
The obtained animals were fed ad libitum with CE-2 (CLEA Japan), and watered ad libitum.
The mice were divided into groups using a statistical analysis system EXSUS10.0 so that the body weight and the urine albumin/urine creatinine value at the time of 6 weeks of age were almost uniform in each group.
The test substance and water for injection (Otsuka Pharmaceutical) as a vehicle were orally administered at 10 mL/kg once a day for 17 weeks.
The Control-3 group was orally administered water for injection at 10 mL/kg once a day for 17 weeks. In the Control-4 group, water for injection and an administration solution of irbesartan which is a renin angiotensin system inhibitor were mixed in equal amounts at 5 mL/kg each, and orally administered once a day for 17 weeks.
The administration dose is described in Table 11.
Blood collection was performed by cutting the tail vein of the mice a little with a razor and using a hematocrit capillary. Blood was centrifuged to obtain plasma. Urine was collected for about 16 hours in a metabolic cage for mouse under conditions in which a solid feed and water can be freely taken. The obtained urine sample was centrifuged, and the supernatant was subjected to measurement. Urine albumin (U-ALB) and urine creatinine (U-CRE) concentrations were measured by an automatic analyzer Hitachi 7180 (Hitachi High-Tech), and the creatinine concentration in plasma was measured using LabAssay Creatinine (Fujifilm Wako Shibayagi).

diabetes model rat = assay: inhibitory effect on the amount of albumin excreted in urine in diabetes model rat; assay type: in vivo, SDT Fatty rats; conditions: urine collected for 24 hours, urine albumin/urine creatinine ratio
Method: Male SDT Fatty rats aged 6 weeks (CLEA Japan) were purchased and preliminarily bred for 1 week or more. Experiments were performed at 8 to 16 weeks of age. The animals were fed ad libitum with solid feed CRF-1 (Oriental Yeast) and watered ad libitum.
Animals were housed in metabolic cages 2 days before test substance administration, and urine was collected for 24 hours. On the day before administration of the test substance, urine albumin and urine creatinine were measured, and grouping was performed by a stratification randomization method based on the urine albumin/urine creatinine ratio (ACR) and the average value of body weights for each group.
The compounds (test substances) of Examples 9-5, 10, 11, 12, 25-7 and 32, and water for injection (Otsuka Pharmaceutical) as a vehicle were orally administered once at 5 mL/kg. The administration dose is described in Table 3.
For evaluation of the amount of albumin excreted in urine of each animal, a urine albumin/urine creatinine ratio (ACR) was measured. After administration of the test substance, the animals were housed in metabolic cages, and urine was collected for 24 hours. Each concentration of urine albumin and urine creatinine was measured using an automatic analyzer 7180 (Hitachi High-Tech), and ACR was calculated by dividing the urine albumin concentration by the urine creatinine concentration.

Structure (SMILES)	Amount of albumin excreted in urine mean ([1]; 0.01 mg/kg orally once a day for 8 weeks) [mg/24 h]	Amount of albumin excreted in urine mean ([1]; 0.03 mg/kg orally once a day for 8 weeks) [mg/24 h]	Plasma creatinine mean ([2]; 1 mg/kg orally once a day for 17 weeks, concomitant drug Irbesartan (50 mg/kg)) [mg/dL]	Plasma creatinine mean ([2]; 3 mg/kg orally once a day for 17 weeks, concomitant drug cell empty) [mg/dL]	ACR mean (diabetes model rat; 0.01 mg/kg orally once) [µg/mg]	ACR mean (diabetes model rat; 0.03 mg/kg orally once) [µg/mg]	Plasma creatinine mean ([2]; 0.1 mg/kg orally once a day for 17 weeks, single agent) [mg/dL]	Plasma creatinine mean ([2]; 0.3 mg/kg orally once a day for 17 weeks, single agent) [mg/dL]	ACR mean (diabetes model rat; 0.003 mg/kg orally once) [µg/mg]
Cc1c(C(=O)O)ccc2c1O[C@H]1C[C@@H](O)[C@H](/C=C/C[C@@](C)(O)CCCC(F)(F)F)[C@H]1CC2 [Example 12, (1R,2R,3aS,10aR)-2-hydroxy-5-methyl-1-[(1E,4S)-8,8,8-trifluoro-4-hydroxy-4-methyl-1-octen-1-yl]-2,3,3a,9,10,10a-hexahydro-1H-benzo[b]cyclopenta[f]oxepine-6-carboxylic acid]	66.09	44.16	0.709	0.722	4602.3	3887.3			
CC(C)(c1ccccc1)C(O)/C=C/[C@H]1CC[C@@H]2Oc3c(ccc(C(=O)O)c3F)CC[C@@H]21 (stereo partly drawn) [Example 25-7, (1R,3aS,10aR)-5-fluoro-1-[(1E,3ξ)-3-hydroxy-4-methyl-4-phenyl-1-penten-1-yl]-2,3,3a,9,10,10a-hexahydro-1H-benzo[b]cyclopenta[f]oxepine-6-carboxylic acid]					2331.6		0.758	0.628	3217.6
